Measured values reported in US10253060B2, “Terpenoid derivatives” (Daiichi Sankyo Company, Limited, priority 2013, dated 2019).

Experiments:
[1] = system: Hmox1 gene; assay: Effect of inducing Nrf2 target gene (in vitro): Hmox1 gene expression in ARPE-19 cells, real-time quantitative PCR; type: cell-based, human; settings: for Hmox1 gene expression level (relative value): approx. 6 hours, 0 nM defined as 1.0, mean ± SD, 3 wells; for concentration at which the expression level of the Hmox1 gene was increased 2-fold / concentration at which the expression level of the Hmox1 gene was increased 5-fold: analysed with Prism
Experimental: The Hmox1 gene was used as the Nrf2 target gene.
The expression level of the Hmox1 gene induced by the addition of a test compound to ARPE-19 cells (human retinal pigment epithelium cell line, ATCC, catalog No. CRL-2302) was measured to examine the effect of inducing the Hmox1 gene by the test compound. The test compound was terpenoid derivative B of the present invention obtained in Example 1 and CDDO-Me as Comparative Example.
The ARPE-19 cells were cultured (5% CO2, 37° C.) using a DMEM/F12 (Life Technologies Japan Ltd., catalog No. 11330-032) mixed medium containing 10% inactivated FBS. The medium contained 100 units/mL (final concentration) penicillin and 100 μg/mL (final concentration) streptomycin.
The ARPE-19 cells were seeded at 60000 cells/well in a 24-well plate. The amount of the medium was 500 μL. Approximately 24 hours later, the medium was replaced with a medium containing terpenoid derivative B of the present invention obtained in Example 1 or CDDO-Me, and the culture was continued. Approximately 6 hours later, mRNA was collected from the ARPE-19 cells using an extraction kit (manufactured by Qiagen N.V., RNeasy Mini Kit, catalog No. 74106). From the obtained mRNA, cDNA was prepared using a cDNA synthesis kit (manufactured by GE Healthcare Life Sciences, First-Strand cDNA Synthesis Kit). The obtained cDNA was amplified using a reagent (manufactured by Applied Biosystems, Inc., TaqMan(R) Gene Expression Master Mix (catalog No. 4369016)) and a probe, and subjected to real-time quantitative PCR (Real-time PCR HT7900 manufactured by Applied Biosystems, Inc. was used).
When the concentration of the test compound was 0 nM, the expression level of the Hmox1 gene was defined as 1.0±0.0. The expression level of the Hmox1 gene at each concentration of the test compound was indicated as a relative value. Each group consisted of 3 wells and was indicated by a mean and standard deviation.
The activity ratios of terpenoid derivative B of the present invention to CDDO-Me were 2747 times and 92 times.

[2] = system: Nqo1 gene; assay: Effect of inducing Nrf2 target gene (in vivo): Nqo1 gene expression in mouse kidney after oral administration; parameters: species or system C57 Black 6 mouse; settings: for Nqo1 gene expression level: solvent group defined as 1, mean ± SD, 6 mice; for induction of the Nqo1 gene (in words): oral, derivative B at a dose of 1 mg/kg
Experimental: The Nqo1 gene was used as the Nrf2 target gene.
Respective suspensions of terpenoid derivative B of the present invention obtained in Example 1 and CDDO-Me were prepared using 0.5 w/v % methylcellulose solution 400 cP (Wako Pure Chemical Industries, Ltd., catalog No. 133-14255) as a solvent. Each suspension was orally administered once a day for 12 consecutive days at a dose of 1, 3, or 10 mg/kg with administration volume of 10 mL/kg to each C57 Black 6 mouse (Charles River Laboratories Japan, Inc., male, 8 weeks old at the time of receipt, 10 weeks old at the start of the experiment). On the next day of the final administration, the mouse was euthanized, and the kidney was sampled. From the sampled kidney, mRNA was collected using an extraction kit (manufactured by Qiagen N.V., RNeasy Mini Kit, catalog No. 74106). From the obtained mRNA, cDNA was prepared using a cDNA synthesis kit (manufactured by GE Healthcare Life Sciences, First-Strand cDNA Synthesis Kit). The obtained cDNA was amplified using a reagent (manufactured by Applied Biosystems, Inc., TaqMan(R) Gene Expression Master Mix (catalog No. 4369016)) and a probe, and subjected to real-time quantitative PCR (Real-time PCR HT7900 manufactured by Applied Biosystems, Inc. was used). […] Each group consisted of 6 mice and was indicated as a mean and standard deviation.

[3] = system: oxygen-induced retinopathy in rat; assay: Inhibitory effect on oxygen-induced retinopathy in rat (in vivo); parameters: species or system SD rat; settings: for Score of pathological condition of retina: rat newborns, oxygen load present, seven times, mean ± SD
Experimental: SD rat newborns (Charles River Laboratories Japan, Inc., pregnant rats were received) were used in the experiment. From the ages of 1 day to 12 days, the newborns were raised under approximately 80% oxygen with the mother rats. The newborns were raised under the atmosphere from the age of 13 days. A suspension of the terpenoid derivative B was prepared using a 0.5 w/v % methylcellulose solution 400 cP (Wako Pure Chemical Industries, Ltd., catalog No. 133-14255) as a solvent. The suspension was orally administered once a day from the ages of 11 days to 17 days, a total of seven times, at a dose of 0.03, 0.1, or 0.3 mpk with administration volume of 10 mL/kg. On the next day of the final […], the newborn rats were euthanized, and the retina was sampled. The pathological condition of the retina was scored according to the literature (Invest Ophthalmol Vis Sci 2000; 41: 887-). Each group consisted of 14 to 30 eyes and was indicated as a mean and standard deviation.

[4] = 1 mg/kg oral once a day for 12 days
[5] = 3 mg/kg oral once a day for 12 days
[6] = 10 mg/kg oral once a day for 12 days

SMILES	activity ratio to CDDO-Me (2-fold Hmox1 increase concentration) [1] [times]	activity ratio to CDDO-Me (5-fold Hmox1 increase concentration) [1] [times]	Hmox1 gene expression level (relative value) ([1]; 0.00001 nM test compound)	Hmox1 gene expression level (relative value) ([1]; 0.001 nM test compound)	Hmox1 gene expression level (relative value) ([1]; 0.03 nM test compound)	Hmox1 gene expression level (relative value) ([1]; 0.3 nM test compound)	Hmox1 gene expression level (relative value) ([1]; 3 nM test compound)	Hmox1 gene expression level (relative value) ([1]; 30 nM test compound)	concentration at which the expression level of the Hmox1 gene was increased 2-fold [1] [nM]	concentration at which the expression level of the Hmox1 gene was increased 5-fold [1] [nM]	Nqo1 gene expression level [2, 4]	Nqo1 gene expression level [2, 5]	Nqo1 gene expression level [2, 6]	induction of the Nqo1 gene (in words) [2]	Score of pathological condition of retina ([3]; 0.03 mg/kg oral once a day)	Score of pathological condition of retina ([3]; 0.1 mg/kg oral once a day)	Score of pathological condition of retina ([3]; 0.3 mg/kg oral once a day)	effect on score of the pathological condition of the retina (in words) ([3]; rat oxygen-induced retinopathy, oral 0.03 to 0.3 mg/kg)
COC(=O)[C@@]12CC[C@]3(C)[C@H](C(=O)C=C4[C@@]5(C)[C@H]6O[C@@]6(C#N)C(=O)C(C)(C)[C@@H]5CC[C@]43C)[C@@H]1CC(C)(C)[C@@H](O)C2 [terpenoid derivative B]	2747	92	1.3 ± 0.0	0.9 ± 0.1	5.4 ± 0.1	6.1 ± 0.5	10.4 ± 1.5	20.8 ± 1.9	0.00091	0.12	1.2 ± 0.1	1.8 ± 0.2	2.3 ± 0.2	confirmed to induce the Nqo1 gene	3.93 ± 0.79	3.54 ± 0.48	2.57 ± 0.35	suppressed the score of the pathological condition of the retina in a dose-dependent manner
COC(=O)[C@]12CCC(C)(C)C[C@H]1[C@H]1C(=O)C=C3[C@@]4(C)C=C(C#N)C(=O)C(C)(C)[C@@H]4CC[C@@]3(C)[C@]1(C)CC2 [CDDO-Me, methyl 2-cyano-3,12-dioxooleana-1,9-dien-28-oate, reference compound]			1.1 ± 0.0	1.0 ± 0.1	1.4 ± 0.0	1.4 ± 0.1	2.1 ± 0.3	12.2 ± 2.6	2.5	11	1.0 ± 0.0	1.0 ± 0.1	1.0 ± 0.1	not confirmed to induce the Nqo1 gene				
